In patent publication US6613718B2, “Aryl ether derivatives and processes for their preparation and herbicidal and desiccant compositions containing them” (Ishihara Sangyo Kaisha, Ltd., priority 2001, dated 2003):

How the values were obtained:
Type in all cases: in vivo
[1] = test system: green foxtail (Setaria viridis, SETVI); assay: Pre-emerge greenhouse herbicide activity screening, phytotoxicity rating; settings: 14 days after application
Excerpt: (§1) A standard greenhouse herbicide activity screening system was used to evaluate the herbicidal efficacy and crop safety of these test compounds. Seven broadleaf weed species including redroot pigweed (Amaranthus retroflexus, AMARE), velvetleaf (Abutilon theophrasti, ABUTH), sicklepod (Cassia obtusifolia, CASOB), ivyleaf morningglory (Ipomoea hederacea, IPOHE), lambsquarters (Chenopodium album, CHEAL), common ragweed (Ambrosia artemisiifolia L., AMBEL), and cocklebur (Xanthium strumarium, XANST) were used as test species. Four grass weed species including green foxtail (Setaria viridis, SETVI), barnyardgrass (Echinochloa crus-galli, ECHCG), johnsongrass (Sorghum halepense, SORHA), and large crabgrass (Digitaria sanguinalis, DIGSA) were also used. In addition, three crop species, field corn (Zea mays L., var. Dekalb 535, CORN), soybean (Glycine max L., var. Pella 86, SOY), and upland rice (Oryza sp., var.Tebonnet, RICE) were included.
(§2) All plants were grown in 10 cm square plastic pots which were filled with a sandy loam soil mix. For pre-emerge tests, seeds were planted one day prior to application of the test compounds. For post-emerge tests, seeds were planted 8-21 days prior to the test to allow emergence and good foliage development prior to application of the test substances. At the time of the post-emerge application, plants of all species were usually at the 2-3 leaf stage of development.
(§3) All test compounds were dissolved in acetone and applied to the test units in a volume of 187 1/ha. Test materials were applied at rates ranging from 15 g ai/ha to 1000 g ai/ha using a track sprayer equipped with a TJ8001E even flow flat fan spray nozzle. Plants were arranged on a shelf so that the top of the canopy (post-emerge) or top of the soil surface (pre-emerge) was 40-45 cm below the nozzle. Pressurized air was used to force the test solution through the nozzle as it was mechanically advanced (via electrically driven chain drive) over the top of all test plants/pots. This application simulates a typical commercial field herbicide application.
(§4) In the post-emerge test, a commercial non-ionic surfactant was also included (0.25% v/v) to enhance wetting of the leaf surfaces of target plants. Immediately after application, test units of the pre-emerge applications were watered at the soil surface to incorporate the test materials. Subsequently, these test units were bottom-watered. Post-emerge test units were always bottom-watered.
(§5) At 14 days after application of the test materials, phytotoxicity ratings were recorded. A rating scale of 0-100 was used as previously described in Research Methods in Weed Science, 2nd edition, B. Truelove, Ed., Southern Weed Science Society, Auburn University, Auburn, Ala., 1977. Briefly, “0” corresponds to no damage and “100” corresponds to complete death of all plants in the test unit. This scale was used both to determine efficacy against weed species and damage to crop species. Herbicide activity data for various compounds of this invention, which are shown by compound No. in Tables I-VI, are shown in Tables VIII-IX.

[2] = test system: barnyardgrass (Echinochloa crus-galli, ECHCG); assay: as above; settings: 14 days after application
Excerpt: as §1, §2, §3, §4, §5

[3] = test system: johnsongrass (Sorghum halepense, SORHA); assay: as above; settings: 14 days after application
Excerpt: as §1, §2, §3, §4, §5

[4] = test system: sicklepod (Cassia obtusifolia, CASOB); assay: as above; settings: 14 days after application
Excerpt: as §1, §2, §3, §4, §5

[5] = test system: large crabgrass (Digitaria sanguinalis, DIGSA); assay: as above; settings: 14 days after application
Excerpt: as §1, §2, §3, §4, §5

[6] = test system: lambsquarters (Chenopodium album, CHEAL); assay: as above; settings: 14 days after application
Excerpt: as §1, §2, §3, §4, §5

[7] = test system: ivyleaf morningglory (Ipomoea hederacea, IPOHE); assay: as above; settings: 14 days after application
Excerpt: as §1, §2, §3, §4, §5

[8] = test system: common ragweed (Ambrosia artemisiifolia L., AMBEL); assay: as above; settings: 14 days after application
Excerpt: as §1, §2, §3, §4, §5

[9] = test system: redroot pigweed (Amaranthus retroflexus, AMARE); assay: as above; settings: 14 days after application
Excerpt: as §1, §2, §3, §4, §5

[10] = test system: velvetleaf (Abutilon theophrasti, ABUTH); assay: as above; settings: 14 days after application
Excerpt: as §1, §2, §3, §4, §5

[11] = test system: soybean (Glycine max L., var. Pella 86, SOY); assay: Post-emerge greenhouse screening, crop safety (phytotoxicity rating); settings: 14 days after application
Excerpt: as §1, §2, §3, §4, §5

[12] = test system: upland rice (Oryza sp., var.Tebonnet, RICE); assay: as above; settings: 14 days after application
Excerpt: as §1, §2, §3, §4, §5

[13] = test system: field corn (Zea mays L., var. Dekalb 535, CORN); assay: Post-emerge greenhouse screening, crop safety / corn selectivity (phytotoxicity rating); settings: 14 days after application
Excerpt: as §1, §2, §3, §4, §5

[14] = test system: soybean (Glycine max L., var. Pella 86, SOY); assay: Pre-emerge greenhouse screening, crop safety (phytotoxicity rating); settings: 14 days after application
Excerpt: as §1, §2, §3, §4, §5

[15] = test system: upland rice (Oryza sp., var.Tebonnet, RICE); assay: as above; settings: 14 days after application
Excerpt: as §1, §2, §3, §4, §5

[16] = test system: field corn (Zea mays L., var. Dekalb 535, CORN); assay: as above; settings: 14 days after application
Excerpt: as §1, §2, §3, §4, §5

[17] = test system: green foxtail (Setaria viridis, SETVI); assay: Post-emerge greenhouse herbicide activity screening, phytotoxicity rating
Excerpt: as §1, §2, §3, §4, §5

[18] = test system: barnyardgrass (Echinochloa crus-galli, ECHCG); assay: as above; settings: 14 days after application
Excerpt: as §1, §2, §3, §4, §5

[19] = test system: johnsongrass (Sorghum halepense, SORHA); assay: as above; settings: 14 days after application
Excerpt: as §1, §2, §3, §4, §5

[20] = test system: sicklepod (Cassia obtusifolia, CASOB); assay: as above
Excerpt: as §1, §2, §3, §4, §5

[21] = test system: large crabgrass (Digitaria sanguinalis, DIGSA); assay: as above; settings: 14 days after application
Excerpt: as §1, §2, §3, §4, §5

[22] = test system: lambsquarters (Chenopodium album, CHEAL); assay: as above
Excerpt: as §1, §2, §3, §4, §5

[23] = test system: ivyleaf morningglory (Ipomoea hederacea, IPOHE); assay: as above; settings: 14 days after application
Excerpt: as §1, §2, §3, §4, §5

[24] = test system: common ragweed (Ambrosia artemisiifolia L., AMBEL); assay: as above
Excerpt: as §1, §2, §3, §4, §5

[25] = test system: redroot pigweed (Amaranthus retroflexus, AMARE); assay: as above
Excerpt: as §1, §2, §3, §4, §5

[26] = test system: velvetleaf (Abutilon theophrasti, ABUTH); assay: as above; settings: 14 days after application
Excerpt: as §1, §2, §3, §4, §5

[27] = 125 g ai/ha, 14 days after application
[28] = 250 g ai/ha, 14 days after application

For `Cn1c(C(F)(F)F)cc(=O)n(-c2cc(Oc3ccccc3N)c(Cl)cc2F)c1=S` [Compound 1-48], the “SETVI phytotoxicity rating (0-100 scale)” value ([1]; 125 g ai/ha) was 90, the “SETVI phytotoxicity rating (0-100 scale)” value ([1]; 250 g ai/ha) was 99 and the “ECHCG phytotoxicity rating (0-100 scale)” value ([2]; 125 g ai/ha) was 80. For the same molecule, the “ECHCG phytotoxicity rating (0-100 scale)” value ([2]; 250 g ai/ha) was 85, the “SORHA phytotoxicity rating (0-100 scale)” value ([3]; 125 g ai/ha) was 55 and the “SORHA phytotoxicity rating (0-100 scale)” value ([3]; 250 g ai/ha) was 85. The “CASOB phytotoxicity rating (0-100 scale)” value ([4]; 125 g ai/ha) was 0, the “CASOB phytotoxicity rating (0-100 scale)” value ([4]; 250 g ai/ha) was 0 and the “DIGSA phytotoxicity rating (0-100 scale)” value ([5]; 125 g ai/ha) was 55. For the same molecule, the “DIGSA phytotoxicity rating (0-100 scale)” value ([5]; 250 g ai/ha) was 75, the “CHEAL phytotoxicity rating (0-100 scale)” value ([6]; 125 g ai/ha) was 100 and the “CHEAL phytotoxicity rating (0-100 scale)” value ([6]; 250 g ai/ha) was 100. For the same molecule, the “IPOHE phytotoxicity rating (0-100 scale)” value ([7]; 125 g ai/ha) was 80, the “IPOHE phytotoxicity rating (0-100 scale)” value ([7]; 250 g ai/ha) was 100 and the “AMBEL phytotoxicity rating (0-100 scale)” value ([8]; 125 g ai/ha) was 70. For the same molecule, the “AMBEL phytotoxicity rating (0-100 scale)” value ([8]; 250 g ai/ha) was 70, the “AMARE phytotoxicity rating (0-100 scale)” value ([9]; 125 g ai/ha) was 100 and the “AMARE phytotoxicity rating (0-100 scale)” value ([9]; 250 g ai/ha) was 100. The “ABUTH phytotoxicity rating (0-100 scale)” value ([10]; 125 g ai/ha) was 90, the “ABUTH phytotoxicity rating (0-100 scale)” value ([10]; 250 g ai/ha) was 100 and the “SOY crop damage, phytotoxicity rating (0-100 scale)” value (shortened to “SOY crop damage”) ([11]; 125 g ai/ha) was 0. For the same molecule, the “SOY crop damage” value ([11]; 250 g ai/ha) was 0, the “RICE crop damage, phytotoxicity rating (0-100 scale)” value (“RICE crop damage” below) ([12]; 125 g ai/ha) was 0 and the “RICE crop damage” value ([12]; 250 g ai/ha) was 35. For the same molecule, the “CORN crop damage, phytotoxicity rating (0-100 scale)” value (shortened to “CORN crop damage”) ([13]; 125 g ai/ha) was 0, the “CORN crop damage” value ([13]; 250 g ai/ha) was 10 and the “SOY crop damage” value ([14]; 125 g ai/ha) was 0. For the same molecule, the “SOY crop damage” value ([14]; 250 g ai/ha) was 0, the “RICE crop damage” value ([15]; 125 g ai/ha) was 0 and the “RICE crop damage” value ([15]; 250 g ai/ha) was 8. The “CORN crop damage” value ([16]; 125 g ai/ha) was 0, the “CORN crop damage” value ([16]; 250 g ai/ha) was 5 and the “SETVI phytotoxicity rating (0-100 scale)” value ([17]; 31.3 g ai/ha) was 0. For the same molecule, the “SETVI phytotoxicity rating (0-100 scale)” value ([17]; 62.5 g ai/ha) was 30, the “SETVI phytotoxicity rating (0-100 scale)” value [17, 27] was 50 and the “SETVI phytotoxicity rating (0-100 scale)” value [17, 28] was 60. The “ECHCG phytotoxicity rating (0-100 scale)” value ([18]; 125 g ai/ha) was 0, the “ECHCG phytotoxicity rating (0-100 scale)” value ([18]; 250 g ai/ha) was 0 and the “SORHA phytotoxicity rating (0-100 scale)” value ([19]; 125 g ai/ha) was 0. For the same molecule, the “SORHA phytotoxicity rating (0-100 scale)” value ([19]; 250 g ai/ha) was 0, the “CASOB phytotoxicity rating (0-100 scale)” value ([20]; 31.3 g ai/ha) was 50 and the “CASOB phytotoxicity rating (0-100 scale)” value ([20]; 62.5 g ai/ha) was 75. The “CASOB phytotoxicity rating (0-100 scale)” value [20, 27] was 75, the “CASOB phytotoxicity rating (0-100 scale)” value [20, 28] was 75 and the “DIGSA phytotoxicity rating (0-100 scale)” value ([21]; 125 g ai/ha) was 25. The “DIGSA phytotoxicity rating (0-100 scale)” value ([21]; 250 g ai/ha) was 50, the “CHEAL phytotoxicity rating (0-100 scale)” value ([22]; 31.3 g ai/ha) was 80 and the “CHEAL phytotoxicity rating (0-100 scale)” value ([22]; 62.5 g ai/ha) was 99. The “CHEAL phytotoxicity rating (0-100 scale)” value [22, 27] was 100, the “CHEAL phytotoxicity rating (0-100 scale)” value [22, 28] was 100 and the “IPOHE phytotoxicity rating (0-100 scale)” value ([23]; 125 g ai/ha) was 80. The “IPOHE phytotoxicity rating (0-100 scale)” value ([23]; 250 g ai/ha) was 75, the “AMBEL phytotoxicity rating (0-100 scale)” value ([24]; 31.3 g ai/ha) was 60 and the “AMBEL phytotoxicity rating (0-100 scale)” value ([24]; 62.5 g ai/ha) was 50. For the same molecule, the “AMBEL phytotoxicity rating (0-100 scale)” value [24, 27] was 60, the “AMBEL phytotoxicity rating (0-100 scale)” value [24, 28] was 75 and the “AMARE phytotoxicity rating (0-100 scale)” value ([25]; 31.3 g ai/ha) was 100. For the same molecule, the “AMARE phytotoxicity rating (0-100 scale)” value ([25]; 62.5 g ai/ha) was 100, the “AMARE phytotoxicity rating (0-100 scale)” value [25, 27] was 100 and the “AMARE phytotoxicity rating (0-100 scale)” value [25, 28] was 100. The “ABUTH phytotoxicity rating (0-100 scale)” value ([26]; 125 g ai/ha) was 85 and the “ABUTH phytotoxicity rating (0-100 scale)” value ([26]; 250 g ai/ha) was 95.
